Assays:
[1] = molecular target: HDAC1 (Homo sapiens, UniProt Q13547); assay: HDAC enzymatic assay, fluorescence-labeled substrate; format: biochemical; details: read-out: HDAC1 IC50
[2] = molecular target: T1, HDAC6 (Homo sapiens, UniProt Q9UBN7); assay: as above; format: biochemical; details: read-out: HDAC6 IC50
T1 sequence (Q9UBN7 1-1215): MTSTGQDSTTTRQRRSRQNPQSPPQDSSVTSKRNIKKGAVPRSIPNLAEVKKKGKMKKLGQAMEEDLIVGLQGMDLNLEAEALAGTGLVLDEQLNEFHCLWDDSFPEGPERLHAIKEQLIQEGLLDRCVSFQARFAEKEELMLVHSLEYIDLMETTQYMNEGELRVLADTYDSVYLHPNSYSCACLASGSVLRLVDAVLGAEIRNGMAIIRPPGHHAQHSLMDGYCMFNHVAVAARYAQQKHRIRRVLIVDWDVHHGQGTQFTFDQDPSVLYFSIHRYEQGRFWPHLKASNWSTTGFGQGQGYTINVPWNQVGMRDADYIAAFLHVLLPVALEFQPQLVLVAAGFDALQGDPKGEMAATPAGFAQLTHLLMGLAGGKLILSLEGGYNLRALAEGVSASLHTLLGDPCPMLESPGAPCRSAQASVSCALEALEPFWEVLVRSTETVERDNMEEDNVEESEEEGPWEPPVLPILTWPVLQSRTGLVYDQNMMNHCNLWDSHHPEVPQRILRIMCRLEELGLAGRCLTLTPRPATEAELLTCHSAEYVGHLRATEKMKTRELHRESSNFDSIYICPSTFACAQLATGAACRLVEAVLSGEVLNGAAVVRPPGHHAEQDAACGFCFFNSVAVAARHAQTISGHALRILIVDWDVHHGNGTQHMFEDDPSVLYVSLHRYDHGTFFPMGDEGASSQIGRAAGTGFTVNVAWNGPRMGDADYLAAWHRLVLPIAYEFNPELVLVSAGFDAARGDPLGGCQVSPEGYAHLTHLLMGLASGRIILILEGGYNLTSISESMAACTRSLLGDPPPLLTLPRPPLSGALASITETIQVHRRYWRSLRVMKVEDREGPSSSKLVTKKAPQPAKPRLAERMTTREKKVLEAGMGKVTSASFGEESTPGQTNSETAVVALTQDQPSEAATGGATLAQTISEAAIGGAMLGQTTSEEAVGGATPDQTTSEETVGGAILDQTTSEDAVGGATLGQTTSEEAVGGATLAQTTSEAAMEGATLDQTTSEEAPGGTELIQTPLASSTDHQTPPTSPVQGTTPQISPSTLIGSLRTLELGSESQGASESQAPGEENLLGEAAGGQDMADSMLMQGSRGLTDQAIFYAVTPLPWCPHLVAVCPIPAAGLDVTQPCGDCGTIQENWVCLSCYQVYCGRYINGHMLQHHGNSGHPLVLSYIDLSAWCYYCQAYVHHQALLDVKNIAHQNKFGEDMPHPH

[3] = tested on: HL-60; assay: Cell proliferation assay: GI50; format: cell-based, human; details: 48 h; read-out: HL-60 GI50
Experimental: Cell proliferation was analyzed using the CellTiter 96 Aqueous One Solution Cell Proliferation Assay (Promega, Madison, WI). This is a colorimetric method for determining the number of viable cells in proliferation. For the assay, suspension cells were cultured in triplicate at a density of 1 × 10^6 cells/mL in 96-well plates (100.000 cells/well, 100 µL/well), using only the 60 inner wells to avoid any border effects. […] Then, the cells were incubated with 100 μL/well of medium and 20 μL/well of CellTiter 96 Aqueous One Solution reagent for 1–3 h. […] The background absorbance was measured in wells with only cell line medium and solution reagent. First, the average of the absorbance from the control wells was subtracted from all other absorbance values. Data were calculated as the percentage of total absorbance of treated cells/absorbance of non-treated cells. The GI50 values of the different compounds were determined using non-linear regression plots made with GraphPad Prism v5 software.

[4] = tested on: HL-60; assay: Differentiation-apoptosis assay, CD11b / annexin-V / Sytox Green / myeloid markers flow cytometry; format: cell-based, human; details: HL-60, daily 25% GI50, 48 h; for Annexin V + (%) / CD11b+ (%): mean of three
Experimental: Next, the cells were washed twice with phosphate-buffered saline (PBS) and resuspended in 1X Binding Buffer at a concentration of 1 × 10^6 cells/mL. […] Finally, after the addition of 400 µL of 1X Binding Buffer to each tube, samples were collected on a BD FACSCanto flow cytometer (Becton Dickinson, San Jose, CA, USA) and analyzed using FlowJo software.
Then, 1 million cells (volume of 250 µL) were added and incubated for 30 min at room temperature in darkness. After 10 min incubation at room temperature with 2 mL of FACSLysing 1X, cells were centrifuged at 540 g for 5 min and washed twice with FACSBuffer. Finally, after centrifugation at 540 g for 5 min cells were resuspended in FACSBuffer.

HDAC1, sequence (Q13547 whole entry): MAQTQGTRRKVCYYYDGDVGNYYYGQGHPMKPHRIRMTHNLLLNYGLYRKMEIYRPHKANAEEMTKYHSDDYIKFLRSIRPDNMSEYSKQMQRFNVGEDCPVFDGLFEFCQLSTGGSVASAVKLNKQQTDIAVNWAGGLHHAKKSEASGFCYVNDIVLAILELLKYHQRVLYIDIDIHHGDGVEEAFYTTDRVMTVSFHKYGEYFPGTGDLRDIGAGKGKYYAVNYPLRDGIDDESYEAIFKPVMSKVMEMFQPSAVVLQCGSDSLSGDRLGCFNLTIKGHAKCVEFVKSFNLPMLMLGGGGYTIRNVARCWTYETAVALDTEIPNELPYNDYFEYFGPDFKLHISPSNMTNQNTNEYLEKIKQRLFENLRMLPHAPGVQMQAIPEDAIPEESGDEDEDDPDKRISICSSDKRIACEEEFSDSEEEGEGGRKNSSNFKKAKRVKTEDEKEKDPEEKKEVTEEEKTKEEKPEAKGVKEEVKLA

Row | Structure (SMILES) | IC50 [1] | IC50 [2] | GI50 [3] | Annexin V (%) Replicate 1 [4] | Annexin V (%) Replicate 2 [4] | Annexin V (%) Replicate 3 [4] | CD11b (%) Replicate 1 [4] | CD11b (%) Replicate 2 [4] | CD11b (%) Replicate 3 [4] | Annexin V + (%) [4] | CD11b+ (%) [4]
1 | COc1cc2c(NC3CCN(C)CC3)cc(-c3ccc(C)o3)nc2cc1OCCCN1CCCC1 [CM-272] | > 20 µM | > 20 µM | 2.9 µM | 1.02% | 1.64% | 1.88% | 1.50% | 0.87% | 0.44% | 1.51% | 0.94%
2 | COc1cc2c(NCC3CCN(C)CC3)cc(-c3ccc(C)o3)nc2cc1OCCCN1CCCC1 [CM-579] | > 20 µM | > 20 µM | > 10 µM | 0.00% | 0.00% | 0.00% | 0.00% | 0.00% | 0.00% | 0.00% | 0.00%

— paper PMC11219871, “Epigenetic-based differentiation therapy for Acute Myeloid Leukemia” (Nature Communications, 2024)
